{"source": "patent US20240226234A1", "about": "“WNT5A PEPTIDES FOR THE TREATMENT OF ACUTE M[…]” (W[…], priority 2021, published 2024)", "format_in_all_cases": "cell-based, human", "key": {"U937 cells [1]": {"tested_on": "U937 cells", "test": "Actin polymerization assay, U937 cells", "details": "U937, Foxy-5 100 μM 72 h", "experimental": "(§1) F-actin polymerization was analyzed in treated leukemic cell lines using AlexaFluor 633-labeled phalloidin (A22284, Invitrogen) before and after CXCL12 stimulation. The cells were stimulated with CXCL12 (300 ng/ml; Peprotech) in serum-free media at 37 °C for 30 and 120 seconds. The reaction was stopped by adding 3 volumes of paraformaldehyde (3.7%) at room temperature for 10 min, then washed and permeabilized on ice. Cells were stained with 633-phalloidin (2 mg/mL). Flow cytometric data were analyzed using a FACS flow cytometer (BD) followed by FlowJo software analysis. The F-actin content obtained were normalized calculating the ratio between each stimulated cells-mean fluorescence intensity (MFI) values and the nonstimulated cells MFI from the basal levels of the control cells and expressed as fold change.\n(§2) Therefore, we performed a flow cytometry analysis to evaluate whether Foxy-5 treatment would be able to disrupt actin polymerization. Leukemia cell lines were treated with Foxy-5 (100 μM) or vehicle during 72 hours, stimulated with CXCL12 (300 ng/ml) for 30 or 120 seconds, and stained with […] for detection of actin polymerization by flow cytometry. […] Thus, a significant reduction of actin polymerization was shown after Foxy-5 treatment when compared to untreated cells after 30 seconds of CXCL12 induction (P<. 001)."}, "K562 cells [2]": {"tested_on": "K562 cells", "test": "Transwell chemotaxis assay toward CXCL12, K562 cells", "details": "K562, Foxy-5 100 μM 72 h pretreatment, CXCL12 100 ng/mL, 24 h", "experimental": "(§3) Leukemic cell lines, pretreated or not with Foxy-5 (72 hours of stimulation) were tested for chemotaxis in Transwell-based assays for Chemotaxis (6.5 mm diameter, 8 μm pore size; Corning). Polycarbonate membranes were incubated with poly-L-lysine (1 mg/mL) for 1 hour at 37° C. followed by saline buffer washing. Briefly, cells were collected, washed with media containing bovine serum albumin (0.1% BSA; Sigma), and then seeded at a density of 5×10^5 cells into the upper chamber of the transwell. The lower chamber was filled with media containing 0.5% BSA (negative control), media containing 10% FBS (positive control) and media 5 containing 0.5% BSA with CXCL12 (100 ng/ml; Peprotech) (Melo et al., 2014). Following 6 h or 24 h of incubation at 37° C., cells that migrated into the lower chamber were collected, centrifuged, resuspended in saline buffer and counted. The number of migrated cells was expressed as a percentage of the input, i.e., the cells number applied directly to the lower compartment in parallel wells. The migration of cells was normalized to 100%+/−standard deviation (SD) of triplicates (Favaro et al., 2013).\n(§4) We investigated whether restoring of WNT5A could enable the modulation CXCL12-induced chemotaxis of leukemia cells. […]"}, "K562 cells [3]": {"tested_on": "K562 cells", "test": "Actin polymerization assay, K562 cells", "details": "K562, Foxy-5 100 μM 72 h", "experimental": "as §1, §2"}, "U937 cells [4]": {"tested_on": "U937 cells", "test": "Transwell chemotaxis assay toward CXCL12, U937 cells", "details": "U937, Foxy-5 100 μM 72 h pretreatment, CXCL12 100 ng/mL, 24 h", "experimental": "as §3, §4"}, "HL60 cells [5]": {"tested_on": "HL60 cells", "test": "Cell growth assay, HL60 cells", "details": "Foxy-5 100 μM, 72 h", "experimental": "(§5) A panel of human myeloid leukemia cell lines (HL60, K562, KG1a, THP1 and U937) and HS-5 mesenchymal stromal cells lineage were cultured in Roswell Park Memorial Institute medium-1640 (RPMI; Sigma) containing 10% Fetal Bovine Serum (Gibco), glutamine (2 mM; Sigma), penicillin (100 μg/mL; Sigma), streptomycin (100 μg/mL; Sigma), and amphotericin B (0.25 μg/mL; Gibco). The cells were maintained in a humidified atmosphere at 37° C. and 5% CO2 and the experiments were performed when they reached exponential growth. For the assays, cells were seeded on a 24-well plate and treated or not with Foxy-5 for 72 hours.\nCells treated with Foxy or with vehicle were collected and cell number was evaluated by manual counting in monoculture and by microscopy with Image J software analysis in 2D culture.\nNext, we evaluated the proliferation rates since this process is modulated by ROS. We treated the cells with Foxy-5 (100 μM) or with vehicle (DMSO) during 72 hours, and then cell growth was analyzed by counting the cells in monoculture, manually, or by the Image J software analysis of the 2D cultures. […] Similar results were obtained in the 2D culture system using leukemia cells and HS-5 mesenchymal stromal cells."}, "KG1a cells": {"tested_on": "KG1a cells", "test": "Autophagy assay (acridine orange), KG1a cells", "details": "2D culture, 72 h", "experimental": "as §5\nCells treated with Foxy or with vehicle were collected and acids vesicles were measured by flow cytometry following staining with Acridine Orange (0.01 mg/mL; Sigma). Acquisition of cells was performed on a FACScalibur flow cytometer (BD) and analysis was carried out using the FlowJo software 4.\nAs autophagy is required for sustaining leukemia cell growth by induction of ROS production, we measured the levels of acidic granule formation by flow cytometry after Foxy-5 or vehicle treatment. […]"}, "HL60 cells [6]": {"tested_on": "HL60 cells", "test": "Actin polymerization assay, HL60 cells", "details": "HL60, Foxy-5 100 μM 72 h", "experimental": "as §1, §2"}, "[7]": {"details": "CXCL12 300 ng/ml for 30 seconds"}, "[8]": {"details": "CXCL12 300 ng/ml for 120 seconds"}}, "note": "No end group written: not given here. *: point of attachment. For = O=C*"}
{"substance": "Foxy-5: Formylated hexapeptide fragment of WNT5A: MDGCEL (SEQ. ID. NO. 3) with methionine in position 1 as N-formyl methionine; WNT5A-mimicking compound (For-MDGCEL; listed as Homo sapiens)", "values": [{"measurement": "F-actin content following CXCL12 stimulation", "setting": "U937 cells [1]; [7]", "result": 3.03, "unit": "fold increase"}, {"measurement": "F-actin content following CXCL12 stimulation", "setting": "U937 cells [1]; [8]", "result": 1.26, "unit": "fold"}, {"measurement": "CXCL12-induced chemotaxis (migrated cells as percentage of the input, average)", "setting": "K562 cells [2]", "result": 1.52, "unit": "%"}, {"measurement": "F-actin content following CXCL12 stimulation", "setting": "K562 cells [3]; [7]", "result": 1.37, "unit": "fold increase"}, {"measurement": "F-actin content following CXCL12 stimulation", "setting": "K562 cells [3]; [8]", "result": 1.31, "unit": "fold increase"}, {"measurement": "CXCL12-induced chemotaxis (migrated cells as percentage of the input, average)", "setting": "U937 cells [4]", "result": 40.35, "unit": "%"}, {"measurement": "reduced cell growth compared to vehicle treated cells", "setting": "HL60 cells [5]; HL60, 2D culture with HS-5 stromal cells", "result": 1.56, "unit": "fold decrease"}, {"measurement": "reduced cell growth compared to vehicle treated cells", "setting": "HL60 cells [5]; HL60, monoculture", "result": 1.22, "unit": "fold decrease"}, {"measurement": "autophagy (acidic granule formation, acridine orange, average)", "setting": "KG1a cells; Foxy-5 50 μM", "result": "27.30 (range 27.20-29.83) MFI"}, {"measurement": "autophagy (acidic granule formation, acridine orange, average)", "setting": "KG1a cells; Foxy-5 100 μM", "result": "21.55 (range 19.05-22.40) MFI"}, {"measurement": "F-actin content following CXCL12 stimulation", "setting": "HL60 cells [6]; [7]", "result": 1.14, "unit": "fold increase"}, {"measurement": "F-actin content following CXCL12 stimulation", "setting": "HL60 cells [6]; [8]", "result": 1.07, "unit": "fold increase"}]}
